Experimental data published in patent US20230029496A1, “AMINO ACID ALTERNATIVE CURING SYSTEM” (THE TEXAS A&M UNIVERSITY SYSTEM, priority 2019, published 2023).
Values joined by “and” are separate entries in the source; they are usually repeats but may differ in a detail not shown here. Equal values may be shown once. Marks after values point to notes of the source that are not given here.

Legend:
[1] = test system: Nitric Oxide Synthase (NOS) system; test: Residual nitrite in pre-rigor and post-rigor pork semimembranosus muscle immersed in L-arginine (Example 13); assay type: biochemical
Method: Pre-rigor pork semimembranosus muscle samples were collected from four pre-rigor pork carcasses (n=4) harvested at the Rosenthal Meat Science and Technology Center at Texas A&M University at three separate times over a three day period (N=12). Post-rigor pork semimembranosus muscle samples were collected from the same carcasses eighteen hours after harvesting to ensure the full onset and completion of rigor (N=12). Muscle samples were treated with the same five concentrations of L-arginine and water as the control treatment. Samples were either heated (water bath increasing from room temperature ([…]) to 62° C. for 60 min) or left raw/fresh (uncooked). The overall experiment was designed as a 6 (5 L-arginine concentrations and a control) by 4 (pork carcasses) by 2 (heating treatment (raw and cooked)) factorial replicated 3 times (collection) (N=144) for both pre-rigor and post-rigor muscle types.
Solutions were prepared by Wu's specifications to stabilize the muscle samples for enclosed reactions within 50 mL conical tubes. […] The NaCl was used to suspend and stabilize any reaction and the NaE was used to accelerate the cure reaction. The L-arginine (L-arginine monohydrochloride, Ajinomoto Inc., Raleigh, N.C.) concentrations were prepared separately for administration as a treatment once the five grams of meat were added to the reaction tubes at dilutions of 0 mM, 2 mM, 4 mM, 8 mM 16 mM, and 32 mM.
Residual nitrite was determine using the modified AOAC Official Method 973.31 (Nitrite Analysis in Cured Meats Procedure) and was verified by Wu with sample (plasma or serum) preparation for amino acid analysis by HPLC and determination of nitrite (UV/VIS Spectrophotometric Method). This method was used to best determine any residual nitrite found in samples to compensate for both pre-rigor and post rigor effects on detecting residual nitrite. All samples were tested one week later after being held in a −30° C. freezer then thawed in a 0° C. cooler.

[2] = test system: Nitric Oxide Synthase (NOS) system; test: Residual nitrite in pre-rigor pork semimembranosus muscle immersed in L-arginine (first study); assay type: biochemical
Method: Pre-rigor pork Semimembranosus muscle samples were collected from four pre-rigor pork carcasses (n=4) harvested at the Rosenthal Meat Science and Technology Center at Texas A&M University at six separate times over a four day period (N=24). Muscle samples were treated with five concentrations of L-arginine, using water as the control treatment. Samples were either subjected to heat treatment (water bath increasing to 62° C. for 60 min) or left raw/fresh (uncooked). All treated muscle samples were analyzed for residual nitrite, and cooked samples were analyzed for nitrosylhemochromagen levels to determine curing efficiency.
Solutions were prepared according to Wu to stabilize the muscle samples for enclosed reactions within the 50 mL conical tubes. […] The NaCl was used to stabilize any reaction and the NaE was used to accelerate any cure reaction that could occur. The L-arginine was prepared separately so as to be administered in specific concentration once the five grams of meat was added to the reaction tubes by creating dilutions of millimolar concentrations at 0 mM, 2 mM, 4 mM, 8 mM, 16 mM, and 32 mM.
The procedures for determining the following sample reactions followed the procedures outlined by Wu 24 5 g muscle samples were individually placed into 50 mL conical tubes.
Residual nitrite was determined using the modified AOAC Official Method 973.31 (Nitrite Analysis in Cured Meats Procedure) and was verified by Wu with sample (plasma or serum) preparation for amino acid analysis by HPLC and determination of nitrite (UV/VIS Spectrophotometric Method). This procedure was used to determine any residual nitrite found in samples. All samples were tested three weeks after being held in a −30° C. freezer then thawed in a 0° C. cooler.
Procedure: • 1. Weigh 5 g (±0.01) of finely comminuted and thoroughly mixed sample into a 100 ml beaker. • 2. Add approximately 40 ml distilled water and heat to 80° C. Use a glass rod to break up all lumps and mix thoroughly. • 3. Transfer the heated solution to a 500 ml volumetric flask. Quantitatively wash the beaker and rod with successive portions of the hot distilled water, adding all washings to the flask (approximately 300 ml). • 4. Transfer the flask to a steam bath (˜100° C.) and shake occasionally for 2 hour. After cooling to room temperature, bring the volume to 500 ml with distilled water and remix. Filter through two Whatman No. 2 filter papers into flask and mix solution thoroughly (discard the residue). Then transfer 25 ml of the filtrate into a 50 ml volumetric flask then add 2.5 ml sulfanilamide reagent, mix thoroughly. • 5. After setting for 5 min, add 2.5 ml NED reagent, mix. Dilute to volume with distilled water, mix and set for another 15 min to let the color develop. • 6. Transfer a portion of the solution to the cuvette and read absorbance at 540 nm against a blank of 45 ml distilled water+2.5 ml sulfanilamide reagent+2.5 ml NED reagent.
• 1. Pipette 0.5 mL of plasma (or serum) to a 12×75 mm polypropylene tube. Place the tube in ice. • 2. Add 0.5 mL of […] to the tube (the tube remains in ice). • 3. Mix the tube well (using a vortex). • 4. After 2 min, add 0.25 mL of 2 M K2CO3 to the tube (the tube remains in ice). • 5.

[3] = 2 mM L-arginine, cooked supernatant
[4] = 2 mM L-arginine, raw supernatant, stored one week at -30° C.
[5] = 4 mM L-arginine, cooked supernatant
[6] = 4 mM L-arginine, raw supernatant, stored one week at -30° C.
[7] = 8 mM L-arginine, cooked supernatant
[8] = 8 mM L-arginine, raw supernatant, stored one week at -30° C.
[9] = 16 mM L-arginine, cooked pellet
[10] = 16 mM L-arginine, cooked supernatant
[11] = 16 mM L-arginine, raw supernatant, stored one week at -30° C.
[12] = 32 mM L-arginine, cooked pellet
[13] = 32 mM L-arginine, cooked supernatant
[14] = 32 mM L-arginine, raw supernatant, stored one week at -30° C.

**Q.** For `N=C(N)NCCC[C@H](N)C(=O)O` [L-arginine], which “Residual Post rigor Nitrite” value ([1]; 2 mM L-arginine, cooked pellet) is on record?
**A.** 19.36^b ppm

**Q.** What about the “Residual Pre-rigor Nitrite” value ([1]; 2 mM L-arginine, cooked pellet) of the same compound?
**A.** 22.87^a ppm

**Q.** And the “Residual Post rigor Nitrite” value [1, 3]?
**A.** 61.12 ppm and 61.12^a ppm

**Q.** What about the “Residual Pre-rigor Nitrite” value [1, 3] of the same compound?
**A.** 50.72 ppm and 50.72^a ppm

**Q.** And the “Residual Post rigor Nitrite” value [1, 4]?
**A.** 9.42^a ppm

**Q.** And the “Residual Pre-rigor Nitrite” value [1, 4]?
**A.** 15.26^a ppm

**Q.** And the “Residual Post rigor Nitrite” value ([1]; 4 mM L-arginine, cooked pellet)?
**A.** 23.72 ppm and 23.72^ab ppm

**Q.** And the “Residual Pre-rigor Nitrite” value ([1]; 4 mM L-arginine, cooked pellet)?
**A.** 22.64^a ppm

**Q.** And the “Residual Post rigor Nitrite” value [1, 5]?
**A.** 61.93 ppm and 61.93^a ppm

**Q.** And the “Residual Pre-rigor Nitrite” value [1, 5]?
**A.** 47.72 ppm and 47.72^ab ppm

**Q.** And the “Residual Post rigor Nitrite” value [1, 6]?
**A.** 14.50^a ppm

**Q.** And the “Residual Pre-rigor Nitrite” value [1, 6]?
**A.** 34.93^a ppm

**Q.** And the “Residual Post rigor Nitrite” value ([1]; 8 mM L-arginine, cooked pellet)?
**A.** 22.06 ppm and 22.06^ab ppm

**Q.** What about the “Residual Pre-rigor Nitrite” value ([1]; 8 mM L-arginine, cooked pellet) of the same compound?
**A.** 19.70^a ppm

**Q.** What about the “Residual Post rigor Nitrite” value [1, 7] of the same compound?
**A.** 52.69 ppm and 52.69^ab ppm

**Q.** And the “Residual Pre-rigor Nitrite” value [1, 7]?
**A.** 38.63 ppm and 38.63^ab ppm

**Q.** And the “Residual Post rigor Nitrite” value [1, 8]?
**A.** 21.83^a ppm

**Q.** What about the “Residual Pre-rigor Nitrite” value [1, 8] of the same compound?
**A.** 44.58^a ppm

**Q.** And the “Residual Post rigor Nitrite” value [1, 9]?
**A.** 22.15 ppm and 22.15^ab ppm

**Q.** And the “Residual Pre-rigor Nitrite” value [1, 9]?
**A.** 31.94^a ppm

**Q.** And the “Residual Post rigor Nitrite” value [1, 10]?
**A.** 53.74 ppm and 53.74^a ppm

**Q.** What about the “Residual Pre-rigor Nitrite” value [1, 10] of the same compound?
**A.** 24.62 ppm and 24.62^ab ppm

**Q.** And the “Residual Post rigor Nitrite” value [1, 11]?
**A.** 23.54^a ppm

**Q.** And the “Residual Pre-rigor Nitrite” value [1, 11]?
**A.** 11.92^a ppm

**Q.** And the “Residual Post rigor Nitrite” value [1, 12]?
**A.** 32.87 ppm and 32.87^a ppm

**Q.** What about the “Residual Pre-rigor Nitrite” value [1, 12] of the same compound?
**A.** 40.14 ppm and 40.14^a ppm

**Q.** What about the “Residual Post rigor Nitrite” value [1, 13] of the same compound?
**A.** 52.90 ppm and 52.90^ab ppm

**Q.** What about the “Residual Pre-rigor Nitrite” value [1, 13] of the same compound?
**A.** 20.08 ppm and 20.08^ab ppm

**Q.** And the “Residual Post rigor Nitrite” value [1, 14]?
**A.** 16.51^a ppm

**Q.** And the “Residual Pre-rigor Nitrite” value [1, 14]?
**A.** 22.09^a ppm

**Q.** What about the Residual Nitrite ([1]; pre-rigor raw supernatant, range over all concentrations of L-arginine) of the same compound?
**A.** 11.92-44.58 ppm

**Q.** What about the residual nitrite levels ([1]; raw post rigor supernatant, range over all concentrations of L-arginine) of the same compound?
**A.** 9.06-23.54 ppm

**Q.** And the “Residual Nitrite” value ([2]; 2 mM L-arginine, cooked pellet)?
**A.** 10.46 ppm and 10.46^a ppm

**Q.** And the “Residual Nitrite” value [2, 3]?
**A.** 5.81 ppm and 5.81^ab ppm

**Q.** And the “Residual Nitrite” value ([2]; 2 mM L-arginine, raw supernatant, stored 3 weeks at -30° C.)?
**A.** 4.53^b ppm

**Q.** And the “Residual Nitrite” value ([2]; 4 mM L-arginine, cooked pellet)?
**A.** 9.35 ppm and 9.35^a ppm

**Q.** And the “Residual Nitrite” value [2, 5]?
**A.** 8.79 ppm and 8.79^a ppm

**Q.** And the “Residual Nitrite” value ([2]; 4 mM L-arginine, raw supernatant, stored 3 weeks at -30° C.)?
**A.** 8.00 ppm and 8.00^ab ppm

**Q.** And the “Residual Nitrite” value ([2]; 8 mM L-arginine, cooked pellet)?
**A.** 11.22 ppm and 11.22^a ppm

**Q.** And the “Residual Nitrite” value [2, 7]?
**A.** 5.85 ppm and 5.85^ab ppm

**Q.** And the “Residual Nitrite” value ([2]; 8 mM L-arginine, raw supernatant, stored 3 weeks at -30° C.)?
**A.** 9.66 ppm and 9.66^ab ppm

**Q.** And the “Residual Nitrite” value [2, 9]?
**A.** 14.06 ppm and 14.06^a ppm

**Q.** And the “Residual Nitrite” value [2, 10]?
**A.** 3.19 ppm and 3.19^ab ppm

**Q.** And the “Residual Nitrite” value ([2]; 16 mM L-arginine, raw supernatant, stored 3 weeks at -30° C.)?
**A.** 9.23 ppm and 9.23^ab ppm

**Q.** And the “Residual Nitrite” value [2, 12]?
**A.** 15.69 ppm and 15.69^a ppm

**Q.** What about the “Residual Nitrite” value [2, 13] of the same compound?
**A.** 7.86 ppm and 7.86^ab ppm

**Q.** What about the “Residual Nitrite” value ([2]; 32 mM L-arginine, raw supernatant, stored 3 weeks at -30° C.) of the same compound?
**A.** 14.34 ppm and 14.34^a ppm
